Assay results reported in patent US6133294A (priority 1999, dated 2000).

Assays:
Assay type in all cases: in vivo
Puccinia recondita = assay: Brown rust (Puccinia recondita--PUCCRT); conditions: wheat (cultivar Monon), 100 ppm spray to run off, inoculated after 24 hours; for pest or weed control at 100 ppm: Puccinia recondita, 1DP, read-out: control of plant disease, PUCCRT 1DP
Protocol: (§1) Compound Formulation: Compound formulation was accomplished by dissolving technical materials in acetone, with serial dilutions then made in acetone to obtain desired rates. Final treatment volumes were obtained by adding nine volumes 0.05% aqueous Tween-20 or Triton X-100, depending upon the pathogen.
(§2) Brown rust (Puccinia recondita--PUCCRT): Wheat (cultivar Monon) was grown from seed in a soilless peat-based potting mixture (Metromix) until the seedlings were 1-2). These plants were then sprayed to run off with the test compound at a rate of 100 ppm. After 24 hours the test plants were inoculated with an aqueous spore suspension of Puccinia recondita. The plants were then transferred to the greenhouse until disease developed on the untreated control plants.
(§3) the following table presents the activity of typical compounds of the present invention when evaluated in these experiments. The effectiveness of the test compounds in controlling disease was rated using the following scale: […]

Phytophthora infestans = assay: whole plant or invertebrate; conditions: for pest or weed control at 100 ppm: Phytophthora infestans, 24 h, read-out: control of plant disease, PHYTIN 1DP; for control of plant disease, PHYTIN 1DP: tomatoes (cultivar Rutgers), 100 ppm spray to run off, inoculated after 24 hours
Erysiphe graminis = assay: Powdery Mildew of Wheat (Erysiphe graminis--ERYSGT); conditions: wheat (cultivar Monon), 100 ppm spray to run off, inoculated after 24 hours; for pest or weed control at 100 ppm: Blumeria graminis, 1DP, read-out: control of plant disease, ERYSGT 1DP
Protocol: as §1
Powdery Mildew of Wheat (Erysiphe graminis--ERYSGT): Wheat (cultivar Monon) was grown in a soilless peat-based potting mixture (Metromix) until the seedlings were 1-2 leaf (BBCH 12). These plants were then sprayed to run off with the test compound at a rate of 100 ppm. After 24 hours the test plants were inoculated with Erysiphe graminis by dusting spores from stock plants onto the test plants. The plants were then transferred to the greenhouse until disease developed on the untreated control plants.
as §3

Leptosphaeria nodorum = assay: Glume blotch of wheat (Leptosphaeria nodorum--LEPTNO); conditions: wheat (cultivar Monon), 100 ppm spray to run off, inoculated after 24 hours; for pest or weed control at 100 ppm: Parastagonospora nodorum, 1DP, read-out: control of plant disease, LEPTNO 1DP
Protocol: as §1
as §2, with “Glume blotch of wheat (Leptosphaeria nodorum--LEPTNO):” for “Brown rust (Puccinia recondita--PUCCRT):”, “1-2 leaf (BBCH 12).” for “1-2).”, “Leptosphaeria nodorum.” for “Puccinia recondita.”
as §3

SMILES | pest or weed control at 100 ppm (Puccinia recondita) [%] | pest or weed control at 100 ppm (Phytophthora infestans) [%] | pest or weed control at 100 ppm (Erysiphe graminis) [%] | pest or weed control at 100 ppm (Leptosphaeria nodorum) [%] | control of plant disease, PUCCRT 1DP (Puccinia recondita) | control of plant disease, PHYTIN 1DP (Phytophthora infestans) | control of plant disease, ERYSGT 1DP (Erysiphe graminis) | control of plant disease, LEPTNO 1DP (Leptosphaeria nodorum)
CNC(=O)C(=NOC)c1ccccc1COc1ncc(-c2nc(C3CCCCC3)no2)cc1Cl [Example 72] | 75 to 100 | 0 to 24 | 0 to 24 | 0 to 24 | – | – | – | –
CNC(=O)C(=NOC)c1ccccc1COc1ccc(-c2cc(C(C)C)on2)cn1 [Example 42] | 75 to 100 | 75 to 100 | 75 to 100 | 0 to 24 | – | – | – | –
CNC(=O)C(=NOC)c1ccccc1COc1ccc(-c2noc(CSc3ccccc3)n2)cn1 [Example 28] | 75 to 100 | 75 to 100 | 75 to 100 | 75 to 100 | – | – | – | –
CCc1cc(-c2cnc(OCc3ccccc3C(=NOC)C(=O)NC)c(Cl)c2)no1 [Example 39] | 75 to 100 | 0 to 24 | 75 to 100 | 75 to 100 | – | – | – | –
CNC(=O)C(=NOC)c1ccccc1COc1ccc(-c2noc(COC)n2)cn1 [Example 25] | 75 to 100 | 75 to 100 | 75 to 100 | 25 to 74 | – | – | – | –
CNC(=O)C(=NOC)c1cccc(F)c1COc1ncc(-c2noc(C(C)(C)C)n2)cc1Cl [Example 27] | – | – | – | – | ++ (75-100% control of plant disease) | - (0-24% control of plant disease) | ++ (75-100% control of plant disease) | ++ (75-100% control of plant disease)
CNC(=O)C(=NOC)c1ccccc1COc1ccc(-c2noc(-c3ccccc3)n2)cn1 [Example 12] | 75 to 100 | 75 to 100 | 75 to 100 | 75 to 100 | – | – | – | –
CCc1noc(-c2cnc(OCc3ccccc3C(=COC)C(=O)OC)c(Cl)c2)n1 [Example 99] | 75 to 100 | 25 to 74 | 75 to 100 | 75 to 100 | – | – | – | –
CNC(=O)C(=NOC)c1cccc(C)c1COc1ncc(-c2noc(C(F)(F)F)n2)cc1Cl [Example 35] | – | – | – | – | ++ (75-100% control of plant disease) | - (0-24% control of plant disease) | ++ (75-100% control of plant disease) | ++ (75-100% control of plant disease)
CCOc1cc(-c2cnc(OCc3ccccc3C(=NOC)C(=O)NC)c(Cl)c2)no1 [Example 40] | 75 to 100 | 25 to 74 | 75 to 100 | 0 to 24 | – | – | – | –
CNC(=O)C(=NOC)c1ccccc1COc1ncc(-c2nnc(-c3ccccc3)o2)cc1Cl [Example 2] | 75 to 100 | 75 to 100 | 25 to 74 | 75 to 100 | – | – | – | –
CNC(=O)C(=NOC)c1ccccc1COc1ncc(-c2noc(-c3ccccc3)n2)cc1Cl [Example 7] | 75 to 100 | 75 to 100 | 75 to 100 | 75 to 100 | – | – | – | –
CCc1noc(-c2cnc(OCc3ccccc3C(=NOC)C(=O)OC)c(Cl)c2)n1 [Example 101] | 75 to 100 | 75 to 100 | 75 to 100 | 25 to 74 | – | – | – | –
CNC(=O)C(=NOC)c1ccccc1COc1ccc(-c2noc(C(C)(C)C)n2)cn1 [Example 9] | 75 to 100 | 0 to 24 | 75 to 100 | 75 to 100 | – | – | – | –
CNC(=O)C(=NOC)c1ccccc1COc1ccc(-c2noc(C(F)(F)F)n2)cn1 [Example 16] | 75 to 100 | 0 to 24 | 75 to 100 | 0 to 24 | – | – | – | –
CNC(=O)C(=NOC)c1ccccc1COc1ncc(-c2nc(C(C)(C)C)no2)cc1Cl [Example 47, Benzeneacetamide, 2-[[[3-chloro-5-(3-t-butyl-1,2,4-oxadiazol-5-yl)-2-pyridinyl]oxy]methyl]-α-(methoxyimino)-N-methyl-] | 75 to 100 | 0 to 24 | 75 to 100 | 75 to 100 | – | – | – | –

SMILES | pest or weed control at 100 ppm (Puccinia recondita) [%] | pest or weed control at 100 ppm (Phytophthora infestans) [%] | pest or weed control at 100 ppm (Erysiphe graminis) [%] | pest or weed control at 100 ppm (Leptosphaeria nodorum) [%] | control of plant disease, PUCCRT 1DP (Puccinia recondita) | control of plant disease, PHYTIN 1DP (Phytophthora infestans) | control of plant disease, ERYSGT 1DP (Erysiphe graminis) | control of plant disease, LEPTNO 1DP (Leptosphaeria nodorum)
CNC(=O)C(=NOC)c1ccccc1COc1ccc(-c2nc(C(C)C)no2)cn1 [Example 70] | 75 to 100 | 0 to 24 | 75 to 100 | 75 to 100 | – | – | – | –
CNC(=O)C(=NOC)c1ccccc1COc1ncc(-c2cc(C(C)(C)C)on2)cc1Cl [Example 41] | 75 to 100 | 0 to 24 | 75 to 100 | 75 to 100 | – | – | – | –
CNC(=O)C(=NOC)c1ccccc1COc1ncc(-c2nc(C(F)(F)F)no2)cc1Cl [Example 68] | 75 to 100 | 0 to 24 | 75 to 100 | 75 to 100 | – | – | – | –
CCCCC(CC)c1nc(-c2cnc(OCc3ccccc3C(=NOC)C(=O)NC)c(Cl)c2)no1 (stereo not shown) [Example 14] | 75 to 100 | 0 to 24 | 75 to 100 | 75 to 100 | – | – | – | –
CNC(=O)C(=NOC)c1ccccc1COc1ccc(-c2nc(C(F)(F)F)no2)cn1 [Example 71] | 75 to 100 | 75 to 100 | 75 to 100 | 0 to 24 | – | – | – | –
CNC(=O)C(=NOC)c1cccc(F)c1COc1cccc(-c2nc(C(C)(C)C)no2)n1 [Example 88] | – | – | – | – | ++ (75-100% control of plant disease) | ++ (75-100% control of plant disease) | ++ (75-100% control of plant disease) | ++ (75-100% control of plant disease)
CNC(=O)C(=NOC)c1ccccc1COc1ncc(-c2noc(C34CC5CC(CC(C5)C3)C4)n2)cc1Cl [Example 15] | 75 to 100 | 75 to 100 | 75 to 100 | 0 to 24 | – | – | – | –
CCc1noc(-c2cccc(OCc3ccccc3C(=NOC)C(=O)NC)n2)n1 [Example 83] | 75 to 100 | 75 to 100 | 25 to 74 | 75 to 100 | – | – | – | –
CNC(=O)C(=NOC)c1ccc(C)cc1COc1ncc(-c2noc(C(F)(F)F)n2)cc1Cl [Example 33] | – | – | – | – | ++ (75-100% control of plant disease) | ++ (75-100% control of plant disease) | ++ (75-100% control of plant disease) | ++ (75-100% control of plant disease)
CNC(=O)C(=NOC)c1ccccc1COc1ncc(-c2noc(C)n2)cc1Cl [Example 8] | 75 to 100 | 0 to 24 | 75 to 100 | 75 to 100 | – | – | – | –
CNC(=O)C(=NOC)c1ccccc1COc1cccc(-c2nc(C(C)(C)C)no2)n1 [Example 84] | 75 to 100 | 75 to 100 | 25 to 74 | 75 to 100 | – | – | – | –
CNC(=O)C(=NOC)c1ccccc1COc1cccc(-c2nc(C(F)(F)F)no2)n1 [Example 89] | 75 to 100 | 75 to 100 | 0 to 24 | 0 to 24 | – | – | – | –
CCOC(=O)c1nc(-c2cnc(OCc3ccccc3C(=NOC)C(=O)NC)c(C)c2)oc1C [Example 52, Benzeneacetamide, 2-[[[3-methyl-5-(4-ethoxycarbonyl-5-methyl-oxazol-2-yl)-2-pyridinyl]oxy]methyl]-α-(methoxyimino)-N-methyl-] | 75 to 100 | 75 to 100 | 25 to 74 | 25 to 74 | – | – | – | –
CNC(=O)C(=NOC)c1ccccc1COc1ncc(-c2noc(C3CC3)n2)cc1Cl [Example 21] | 75 to 100 | 75 to 100 | 75 to 100 | 75 to 100 | – | – | – | –
CNC(=O)C(=NOC)c1ccccc1COc1ncc(-c2noc(C(C)C)n2)cc1Cl [Example 37] | 75 to 100 | 0 to 24 | 75 to 100 | 75 to 100 | – | – | – | –
